PubChem BioAssay AID248 (DTP/NCI, 2004)
Several values for one entry are separate records, joined by “and”; a condition that tells them apart may be missing. Identical values can stand only once. Inconclusive results and toxic doses are left out.

Tested on: L1210 leukemia ip in BDF1 mice, survival T/C
Assay: NCI In Vivo Anticancer Drug Screen. Data for tumor model L1210 Leukemia (intraperitoneal) in B6D2F1 (BDF1) mice
Conditions: endpoint: mean survival time, higher = longer survival
Summary of the method: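 In this screen, tumor-bearing mice given compound are compared to those given vehicle, and their survival values are reported as a treated-to-control quotient.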

[1] = dose: 100.0 mg/kg/injection, schedule: Q01DX009 (ip), vehicle: Klucel (hydroxypropylcellulose) (HPC)
[2] = dose: 100.0 mg/kg/injection, schedule: Q04DX003 (ip), vehicle: Klucel (hydroxypropylcellulose) (HPC)
[3] = dose: 200.0 mg/kg/injection, schedule: Q01DX009 (ip), vehicle: Klucel (hydroxypropylcellulose) (HPC)
[4] = dose: 200.0 mg/kg/injection, schedule: Q04DX003 (ip), vehicle: Klucel (hydroxypropylcellulose) (HPC)
[5] = dose: 400.0 mg/kg/injection, schedule: Q01DX009 (ip), vehicle: Klucel (hydroxypropylcellulose) (HPC)
[6] = dose: 400.0 mg/kg/injection, schedule: Q04DX003 (ip), vehicle: Klucel (hydroxypropylcellulose) (HPC)
[7] = dose: 30.0 mg/kg/injection, schedule: Q01DX Z (ip), vehicle: carboxymethylcellulose (CMC)
[8] = dose: 60.0 mg/kg/injection, schedule: Q01DX Z (ip), vehicle: carboxymethylcellulose (CMC)
[9] = dose: 100.0 mg/kg/injection, schedule: Q04DX003 (ip), vehicle: saline
[10] = dose: 200.0 mg/kg/injection, schedule: Q04DX003 (ip), vehicle: saline
[11] = dose: 400.0 mg/kg/injection, schedule: Q04DX003 (ip), vehicle: saline
[12] = dose: 50.0 mg/kg/injection, schedule: Q04DX003 (ip), vehicle: saline
[13] = dose: 100.0 mg/kg/injection, schedule: Q01DX009 (ip), vehicle: saline with Tween-80
[14] = dose: 15.0 mg/kg/injection, schedule: Q01DX Z (ip), vehicle: carboxymethylcellulose (CMC)
[15] = dose: 100.0 mg/kg/injection, schedule: Q04DX003 (ip), vehicle: saline with Tween-80
[16] = dose: 200.0 mg/kg/injection, schedule: Q04DX003 (ip), vehicle: saline with Tween-80
[17] = dose: 400.0 mg/kg/injection, schedule: Q04DX003 (ip), vehicle: saline with Tween-80

Compound: COC(C)C(O)(C(N)=O)C(C)C (configuration not stated)
- T/C [1]: 98 % of control
- T/C [2]: 101 % of control
- T/C [3]: 98 % of control
- T/C [4]: 101 % of control
- T/C [5]: 102 % of control
- T/C [6]: 97 % of control

Compound: CCOC(=O)c1ccc(N=NN(C)C)cc1
- T/C [7]: 97 % of control and 102 % of control
- T/C [8]: 107 % of control
- T/C (dose: 90.0 mg/kg/injection, schedule: Q01DX Z (ip), vehicle: carboxymethylcellulose (CMC)): 110 % of control and 124 % of control

Compound: CO/N=C/c1ccc([N+](=O)[O-])s1
- T/C [9]: 106 % of control
- T/C [10]: 95 % of control
- T/C [11]: 98 % of control

Compound: CC(C)(C)C(=O)CC(=O)C(C)(C)C.CC(C)(C)C(=O)CC(=O)C(C)(C)C.CC(C)(C)C(=O)CC(=O)C(C)(C)C.CC(C)(C)C(=O)CC(=O)C(C)(C)C.[Zr]
- T/C [1]: 96 % of control
- T/C [2]: 94 % of control
- T/C [3]: 97 % of control
- T/C [4]: 89 % of control
- T/C [5]: 96 % of control
- T/C [6]: 101 % of control

Compound: CC1(C)OC2C(CO)OC(OCc3ccccc3)C2O1 (configuration not stated)
- T/C [12]: 100 % of control
- T/C [9]: 91 % of control
- T/C [10]: 105 % of control
- T/C [11]: 88 % of control

Compound: CC(=O)c1ccc(Cc2ccc(C(C)=O)s2)s1
- T/C (dose: 50.0 mg/kg/injection, schedule: Q01DX009 (ip), vehicle: saline with Tween-80): 86 % of control
- T/C [13]: 93 % of control
- T/C (dose: 200.0 mg/kg/injection, schedule: Q01DX009 (ip), vehicle: saline with Tween-80): 89 % of control

Compound: CCOC(=O)CCCc1ccc(N=NN(C)C(C)CC)cc1 (configuration not stated)
- T/C (dose: 100.0 mg/kg/injection, schedule: Q01DX001 (ip), vehicle: carboxymethylcellulose (CMC)): 111 % of control
- T/C (dose: 200.0 mg/kg/injection, schedule: Q01DX001 (ip), vehicle: carboxymethylcellulose (CMC)): 102 % of control
- T/C (dose: 400.0 mg/kg/injection, schedule: Q01DX001 (ip), vehicle: carboxymethylcellulose (CMC)): 107 % of control

Compound: CN(CCC(C#N)c1ccccc1)C(=O)c1ccccc1 (configuration not stated)
- T/C (dose: 75.0 mg/kg/injection, schedule: Q01DX001 (ip), vehicle: saline): 98 % of control
- T/C (dose: 150.0 mg/kg/injection, schedule: Q01DX001 (ip), vehicle: saline): 96 % of control

Compound: C/C(CCC(=O)O)=N/N=C(N)N
- T/C [14]: 100 % of control
- T/C [7]: 106 % of control
- T/C [8]: 106 % of control
- T/C (dose: 120.0 mg/kg/injection, schedule: Q01DX Z (ip), vehicle: carboxymethylcellulose (CMC)): 95 % of control and 102 % of control
- T/C (dose: 240.0 mg/kg/injection, schedule: Q01DX Z (ip), vehicle: carboxymethylcellulose (CMC)): 108 % of control
- T/C (dose: 480.0 mg/kg/injection, schedule: Q01DX Z (ip), vehicle: carboxymethylcellulose (CMC)): 104 % of control

Compound: O=CNc1ccccc1
- T/C [15]: 96 % of control
- T/C [16]: 98 % of control
- T/C [17]: 98 % of control

Compound: O=C(O)CCOc1ccccc1[N+](=O)[O-]
- T/C (dose: 37.5 mg/kg/injection, schedule: Q01DX009 (ip), vehicle: saline with Tween-80): 91 % of control
- T/C (dose: 75.0 mg/kg/injection, schedule: Q01DX009 (ip), vehicle: saline with Tween-80): 91 % of control
- T/C [1]: 97 % of control
- T/C (dose: 150.0 mg/kg/injection, schedule: Q01DX009 (ip), vehicle: saline with Tween-80): 88 % of control
- T/C [3]: 87 % of control
- T/C [5]: 95 % of control

Compound: COc1ccc(COC(=O)Oc2ccc(Cl)cc2)cc1OC
- T/C [15]: 96 % of control
- T/C [16]: 96 % of control
- T/C [17]: 101 % of control

Compound: BrCc1cccc2cccc(CBr)c12
- T/C (dose: 50.0 mg/kg/injection, schedule: Q04DX003 (ip), vehicle: Klucel (hydroxypropylcellulose) (HPC)): 97 % of control
- T/C (dose: 100.0 mg/kg/injection, schedule: Q01DX001 (ip), vehicle: Klucel (hydroxypropylcellulose) (HPC)): 113 % of control
- T/C [2]: 101 % of control
- T/C (dose: 200.0 mg/kg/injection, schedule: Q01DX001 (ip), vehicle: Klucel (hydroxypropylcellulose) (HPC)): 111 % of control
- T/C [4]: 103 % of control

Compound: CCOC(=O)C1(N)CCCC1
- T/C [14]: 105 % of control
- T/C (dose: 23.0 mg/kg/injection, schedule: Q01DX Z (ip), vehicle: carboxymethylcellulose (CMC)): 108 % of control
- T/C (dose: 31.3 mg/kg/injection, schedule: Q01DX015 (ip), vehicle: saline): 96 % of control
- T/C (dose: 35.0 mg/kg/injection, schedule: Q01DX Z (ip), vehicle: carboxymethylcellulose (CMC)): 117 % of control
- T/C (dose: 62.5 mg/kg/injection, schedule: Q01DX015 (ip), vehicle: saline): 124 % of control
- T/C (dose: 83.0 mg/kg/injection, schedule: Q01DX Z (ip), vehicle: carboxymethylcellulose (CMC)): 122 % of control
- T/C (dose: 125.0 mg/kg/injection, schedule: Q01DX015 (ip), vehicle: saline): 150 % of control
- T/C (dose: 125.0 mg/kg/injection, schedule: Q01DX Z (ip), vehicle: carboxymethylcellulose (CMC)): 122 % of control
- T/C (dose: 188.0 mg/kg/injection, schedule: Q01DX Z (ip), vehicle: carboxymethylcellulose (CMC)): 110 % of control
- T/C (dose: 250.0 mg/kg/injection, schedule: Q01DX015 (ip), vehicle: saline): 157 % of control
- T/C (dose: 500.0 mg/kg/injection, schedule: Q01DX015 (ip), vehicle: saline): 118 % of control

Compound: C[CH2][Ge]([CH2]C)([CH2]C)[CH2]C#N
- T/C (dose: 5.0 mg/kg/injection, schedule: Q04DX002 (ip), vehicle: saline with Tween-80): 100 % of control
- T/C (dose: 10.0 mg/kg/injection, schedule: Q04DX002 (ip), vehicle: saline with Tween-80): 103 % of control
- T/C (dose: 20.0 mg/kg/injection, schedule: Q04DX002 (ip), vehicle: saline with Tween-80): 100 % of control

Compound: CN(C)c1ccc(P(c2ccc(N(C)C)cc2)c2ccc(N(C)C)cc2)cc1
- T/C [1]: 91 % of control
- T/C [2]: 95 % of control
- T/C [3]: 91 % of control
- T/C [4]: 95 % of control
- T/C [5]: 87 % of control
- T/C [6]: 95 % of control

Compound: O=C(NC(=O)c1ccccc1)Nc1cccc2ccccc12
- T/C (dose: 100.0 mg/kg/injection, schedule: Q04DX002 (ip), vehicle: gum acacia): 97 % of control
- T/C (dose: 200.0 mg/kg/injection, schedule: Q04DX002 (ip), vehicle: gum acacia): 90 % of control
- T/C (dose: 400.0 mg/kg/injection, schedule: Q04DX002 (ip), vehicle: gum acacia): 90 % of control

Compound: COc1ccccc1OCCOCCN(C)C1CCCCC1
- T/C (dose: 12.5 mg/kg/injection, schedule: Q01DX009 (ip), vehicle: Klucel (hydroxypropylcellulose) (HPC)): 93 % of control
- T/C (dose: 25.0 mg/kg/injection, schedule: Q01DX009 (ip), vehicle: Klucel (hydroxypropylcellulose) (HPC)): 94 % of control
- T/C (dose: 25.0 mg/kg/injection, schedule: Q04DX002 (ip), vehicle: Klucel (hydroxypropylcellulose) (HPC)): 102 % of control
- T/C (dose: 50.0 mg/kg/injection, schedule: Q01DX009 (ip), vehicle: Klucel (hydroxypropylcellulose) (HPC)): 96 % of control
- T/C (dose: 50.0 mg/kg/injection, schedule: Q04DX002 (ip), vehicle: Klucel (hydroxypropylcellulose) (HPC)): 105 % of control

Compound: O=C(NS(=O)(=O)c1ccc(Cl)cc1)c1cccc2ccccc12
- T/C [13]: 91 % of control

Compound: CC(C)(CSCCSCC(C)(C)C(=O)O)C(=O)O
- T/C [1]: 94 % of control
- T/C [3]: 94 % of control
- T/C [5]: 91 % of control

Compound: C[N+](C)(C)Cc1ccccc1C[N+](C)(C)C
- T/C (dose: 50.0 mg/kg/injection, schedule: Q01DX001 (ip), vehicle: saline): 113 % of control
- T/C (dose: 100.0 mg/kg/injection, schedule: Q01DX001 (ip), vehicle: saline): 101 % of control
- T/C (dose: 200.0 mg/kg/injection, schedule: Q01DX001 (ip), vehicle: saline): 97 % of control

Compound: O=S(=O)(F)c1cc(Cl)c(O)cc1Cl
- T/C [1]: 97 % of control
- T/C [3]: 101 % of control

Compound: FC(F)(F)c1ccc(N2CCCCC2)cc1
- T/C (dose: 75.0 mg/kg/injection, schedule: Q04DX002 (ip), vehicle: saline): 103 % of control
- T/C (dose: 150.0 mg/kg/injection, schedule: Q04DX002 (ip), vehicle: saline): 95 % of control
- T/C (dose: 300.0 mg/kg/injection, schedule: Q04DX002 (ip), vehicle: saline): 95 % of control

Compound: Cc1ccc(-c2ccc(C)cc2)cc1
- T/C [2]: 98 % of control
- T/C [4]: 95 % of control
- T/C [6]: 98 % of control

Compound: NC(N)=N/N=C(\C=C\C=C(c1ccc(Cl)cc1)c1ccc(Cl)cc1)c1ccc(Cl)cc1
- T/C (dose: 12.5 mg/kg/injection, schedule: Q04DX003 (ip), vehicle: saline): 95 % of control
- T/C (dose: 25.0 mg/kg/injection, schedule: Q04DX003 (ip), vehicle: saline): 95 % of control
- T/C [12]: 91 % of control

Compound: NC(=O)NC(N)=S
- T/C [15]: 99 % of control
- T/C [16]: 103 % of control
- T/C [17]: 103 % of control
